For one assay, the target named is T1, LCAT (Homo sapiens, UniProt P04180).
T1 construct: The obtained fraction was dialyzed against phosphate-buffered saline (pH 7.4) and used as an enzyme source and an acceptor for LCAT; from tissue; host or cells: HDL3 fraction (1.125<specific gravity<1.210 g/mL) of plasma from a healthy person
T1 sequence (P04180 25-440): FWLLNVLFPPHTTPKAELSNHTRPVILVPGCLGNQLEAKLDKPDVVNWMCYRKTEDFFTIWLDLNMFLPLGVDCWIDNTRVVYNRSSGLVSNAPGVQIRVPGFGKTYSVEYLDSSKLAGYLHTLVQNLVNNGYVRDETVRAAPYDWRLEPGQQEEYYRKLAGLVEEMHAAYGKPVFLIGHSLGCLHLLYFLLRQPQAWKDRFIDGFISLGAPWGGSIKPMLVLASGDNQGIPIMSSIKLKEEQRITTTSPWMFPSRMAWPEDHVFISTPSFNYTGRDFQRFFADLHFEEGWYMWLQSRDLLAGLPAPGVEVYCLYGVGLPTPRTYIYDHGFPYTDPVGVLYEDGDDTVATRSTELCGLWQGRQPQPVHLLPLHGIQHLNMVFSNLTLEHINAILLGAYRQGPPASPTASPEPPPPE
Kind of assay: LCAT Activity Measurement (In Vitro). To be noted: EC50 of LCAT activation; HDL3 fraction from plasma of a healthy person as enzyme source and acceptor; [14C]cholesterol; 37° C., approximately 16 hours. In kind it is biochemical. In outline:
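Human plasma HDL3 (1 mg/mL, PBS pH 7.4) served as enzyme and acceptor with [14C]cholesterol, 0.5 mM DTNB, 12.5 mM mercaptoethanol and 0.6% BSA; compounds in DMSO, incubated ~16 h at 37 °C. Cholesterol oleate radioactivity quantified after extraction and TLC; EC50 of activation fitted relative to no-drug control.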

The subject of another assay is cynomolgus monkey. Put plainly: Drug Efficacy Test in Cynomolgus Monkeys. The class given is in vivo. The following applies: oral, single dose of 10 mg/kg, compared with before administration, from AUC before administration and 24 hours after administration. As to the method: Each test drug was dissolved in a propylene glycol (Sigma-Aldrich Corp.)-Tween 80 (Sigma-Aldrich Corp.) mixed solution [4/1 (v/v)] or a 0.5% (w/v) methylcellulose aqueous solution, and the solution was orally administered to a cynomolgus monkey for 1 or 7 days. At 1 or 7 day of administration period, blood was collected before administration and after administration, and plasma was obtained. The content of cholesterol in the plasma was measured using a commercially available assay kit (Cholesterol-E Wako, Wako Pure Chemical Industries, Ltd.). The lipoprotein profile was analyzed by HPLC (column: LipopropakXL, manufactured by Tosoh Corp.). The contents of HDL cholesterol and non-HDL cholesterol were calculated according to the following calculation expression: Content of HDL cholesterol=Content of cholesterol in the plasma×(Peak area of HDL cholesterol/Total sum of peaks) Content of non-HDL cholesterol=Content of cholesterol in the plasma×(Peak area of non-HDL cholesterol/Total sum of peaks)
The rate (%) of increase in HDL level after the administration of a single dose of 10 mg/kg compared with before administration was determined from AUC before administration and 24 hours after administration.

From patent US9150575B2, “Piperidinylpyrazolopyridine derivative” (Daiichi Sankyo Company, Limited, priority 2012, dated 2015) come the findings set out here.

For the compound `O=C1CC(O)(C(F)(F)F)c2c(C3CCN(c4ccc(Cl)cn4)CC3)n[nH]c2N1` (single isomer, unassigned; (-)) [Compound 50-1, (−)-3-[1-(5-Chloropyridin-2-yl)piperidin-4-yl]-4-hydroxy-4-(trifluoromethyl)-1,4,5,7-tetrahydro-6H-pyrazolo[3,4-b]pyridin-6-one], the EC50 on LCAT was determined as 45 nM. Further, the “Rate of increase in HDL level after administration of single dose” value (“Rate of increase in HDL level” for short) in the assay on cynomolgus monkey is listed as 433%.

Take `O=C1CC(O)(C(F)(F)F)c2c(C3CCN(c4ccc(OC(F)F)cc4)CC3)n[nH]c2N1` (single isomer, unassigned; (-)) [Compound 56-1, (−)-3-{1-[4-(Difluoromethoxy)phenyl]piperidin-4-yl}-4-hydroxy-4-(trifluoromethyl)-1,4,5,7-tetrahydro-6H-pyrazolo[3,4-b]pyridin-6-one]: the concentration giving a half-maximal response (EC50) on LCAT stood at 45 nM. The “Rate of increase in HDL level” value in the assay with cynomolgus monkey was 644%. With `O=C1CC(O)(C(F)(F)F)c2c(C3CCN(c4cccc(C(F)(F)F)n4)CC3)n[nH]c2N1` (stereo not drawn) [Example 7, 4-Hydroxy-4-(trifluoromethyl)-3-{1-[6-(trifluoromethyl)pyridin-2-yl]piperidin-4-yl}-1,4,5,7-tetrahydro-6H-pyrazolo[3,4-b]pyridin-6-one], at LCAT, the EC50 came out at 48 nM. For the same compound, the “Rate of increase in HDL level” value in the assay with cynomolgus monkey worked out at 334%.

`O=C1CC(O)(C(F)(F)F)c2c(C3CCN(c4ccc(C(F)(F)F)cn4)CC3)n[nH]c2N1` (stereo not drawn) [Example 8, 4-Hydroxy-4-(trifluoromethyl)-3-{1-[5-(trifluoromethyl)pyridin-2-yl]piperidin-4-yl}-1,4,5,7-tetrahydro-6H-pyrazolo[3,4-b]pyridin-6-one]: the EC50 on LCAT was 21 nM. For the same compound, in the assay with cynomolgus monkey, the “Rate of increase in HDL level” value stood at 531%.

As for `O=C1CC(O)(C(F)(F)F)c2c(C3CCN(c4ncc(C(F)(F)F)cc4Cl)CC3)n[nH]c2N1` (stereo not drawn) [Example 10, 3-{1-[3-Chloro-5-(trifluoromethyl)pyridin-2-yl]piperidin-4-yl}-4-hydroxy-4-(trifluoromethyl)-1,4,5,7-tetrahydro-6H-pyrazolo[3,4-b]pyridin-6-one], the midpoint of the response on LCAT, the EC50, lay at 210 nM. For the same compound, in the assay on cynomolgus monkey, the “Rate of increase in HDL level” value was 526%. As for `O=C1CC(O)(C(F)(F)F)c2c(C3CCN(c4ncc(C(F)(F)F)cc4F)CC3)n[nH]c2N1` (stereo not drawn) [Example 96, 3-{1-[3-Fluoro-5-(trifluoromethyl)pyridin-2-yl]piperidin-4-yl}-4-hydroxy-4-(trifluoromethyl)-1,4,5,7-tetrahydro-6H-pyrazolo[3,4-b]pyridin-6-one], the EC50 at LCAT amounted to 220 nM. In the case of `O=C1CC(O)(C(F)(F)F)c2c(C3CCN(c4ccc(C(F)(F)F)c(F)n4)CC3)n[nH]c2N1` (stereo not drawn) [Example 97, 3-{1-[6-Fluoro-5-(trifluoromethyl)pyridin-2-yl]piperidin-4-yl}-4-hydroxy-4-(trifluoromethyl)-1,4,5,7-tetrahydro-6H-pyrazolo[3,4-b]pyridin-6-one], a half-maximal effect on LCAT (EC50) was put at 35 nM.

Compound `O=C1CC(O)(C(F)(F)F)c2c(C3CCN(c4ccc(C5CC5)cn4)CC3)n[nH]c2N1` (stereo not drawn) [Example 99, 3-[1-(5-Cyclopropylpyridin-2-yl)piperidin-4-yl]-4-hydroxy-4-(trifluoromethyl)-1,4,5,7-tetrahydro-6H-pyrazolo[3,4-b]pyridin-6-one] came in with a half-maximal effective concentration (EC50) at LCAT of 75 nM. On LCAT, `N#Cc1cccnc1N1CCC(c2n[nH]c3c2C(O)(C(F)(F)F)CC(=O)N3)CC1` (stereo not drawn) [Example 100, 2-{4-[4-Hydroxy-6-oxo-4-(trifluoromethyl)-4,5,6,7-tetrahydro-1H-pyrazolo[3,4-b]pyridin-3-yl]piperidin-1-yl}pyridine-3-carbonitrile] displayed an EC50 of 1550 nM. Regarding `N#Cc1cc(C(F)(F)F)cnc1N1CCC(c2n[nH]c3c2C(O)(C(F)(F)F)CC(=O)N3)CC1` (stereo not drawn) [Example 101, 2-{4-[4-Hydroxy-6-oxo-4-(trifluoromethyl)-4,5,6,7-tetrahydro-1H-pyrazolo[3,4-b]pyridin-3-yl]piperidin-1-yl}-5-(trifluoromethyl)pyridine-3-carbonitrile], the midpoint of the response at LCAT, the EC50, lay at 170 nM.

Turning to `O=C1CC(O)(C(F)(F)F)c2c(C3CCN(c4cc(I)c(C(F)(F)F)cn4)CC3)n[nH]c2N1` (stereo not drawn) [Example 102, 4-Hydroxy-3-{1-[4-iodo-5-(trifluoromethyl)pyridin-2-yl]piperidin-4-yl}-4-(trifluoromethyl)-1,4,5,7-tetrahydro-6H-pyrazolo[3,4-b]pyridin-6-one], at LCAT, it took 21 nM to reach a half-maximal effect (EC50). On the same count and under the same terms, the value for `N#Cc1cnc(N2CCC(c3n[nH]c4c3C(O)(C(F)(F)F)CC(=O)N4)CC2)c(C(F)(F)F)c1` (stereo not drawn) [Example 104, 6-{4-[4-Hydroxy-6-oxo-4-(trifluoromethyl)-4,5,6,7-tetrahydro-1H-pyrazolo[3,4-b]pyridin-3-yl]piperidin-1-yl}-5-(trifluoromethyl)pyridine-3-carbonitrile] was 1100 nM; that for `O=C1CC(O)(C(F)(F)F)c2c(C3CCN(c4ccc(-c5ccccc5)nn4)CC3)n[nH]c2N1` (stereo not drawn) [Example 105, 4-Hydroxy-3-[1-(6-phenylpyridazin-3-yl)piperidin-4-yl]-4-(trifluoromethyl)-1,4,5,7-tetrahydro-6H-pyrazolo[3,4-b]pyridin-6-one] was 27 nM.
